Data taken from ChEMBL document CHEMBL3286303, “Synthesis and in vitro antiproliferative evaluation of novel N-alkylated 6-isobutyl- and propyl pyrimidine derivatives” (Bioorg Med Chem Lett, 2014).
Activity calls are given as the source filed them. The calls are words filed in the database; no cut-off is given here.

How the values were obtained:
[1] = system: SW-620; assay: Cell cycle arrest in human SW620 cells as assessed as accumulation at sub-G1 phase at 0.1 uM after 48 hrs by propidium iodide staining-based flow cytometric analysis relative to control; format: functional
[2] = system: SW-620; assay: Cell cycle arrest in human SW620 cells as assessed as accumulation at S phase at 1 uM after 24 hrs by propidium iodide staining-based flow cytometric analysis relative to control; format: functional
[3] = system: K562; assay: Cell cycle arrest in human K562 cells as assessed as accumulation at sub-G1 phase at 0.1 uM after 48 hrs by propidium iodide staining-based flow cytometric analysis relative to control; format: functional
[4] = system: MCF7; assay: Antiproliferative activity against human MCF7 cells after 72 hrs by MTT assay; format: functional, cell-based
[5] = system: SW-620; assay: Cell cycle arrest in human SW620 cells as assessed as accumulation at G1 phase at 0.1 uM after 24 hrs by propidium iodide staining-based flow cytometric analysis relative to control; format: functional
[6] = system: SW-620; assay: Cell cycle arrest in human SW620 cells as assessed as accumulation at S phase at 0.1 uM after 24 hrs by propidium iodide staining-based flow cytometric analysis relative to control; format: functional
[7] = system: WI-38; assay: Cell cycle arrest in human WI38 cells as assessed as accumulation at G2/M phase at 0.1 uM after 24 hrs by propidium iodide staining-based flow cytometric analysis relative to control; settings: wi-38, 24 h
[8] = system: K562; assay: Cell cycle arrest in human K562 cells as assessed as accumulation at G2/M phase at 0.5 uM after 48 hrs by propidium iodide staining-based flow cytometric analysis relative to control; format: functional
[9] = system: K562; assay: Cell cycle arrest in human K562 cells as assessed as accumulation at S phase at 0.1 uM after 24 hrs by propidium iodide staining-based flow cytometric analysis relative to control; format: functional
[10] = system: MCF7; assay: Cell cycle arrest in human MCF7 cells as assessed as accumulation at sub-G1 phase at 1 uM after 48 hrs by propidium iodide staining-based flow cytometric analysis relative to control; format: functional
[11] = system: WI-38; assay: Cell cycle arrest in human WI38 cells as assessed as accumulation at G1 phase at 0.1 uM after 24 hrs by propidium iodide staining-based flow cytometric analysis relative to control; settings: wi-38, 24 h
[12] = system: SW-620; assay: Cell cycle arrest in human SW620 cells as assessed as accumulation at sub-G1 phase at 0.1 uM after 24 hrs by propidium iodide staining-based flow cytometric analysis relative to control; format: functional
[13] = system: MCF7; assay: Antiadhesive activity against human MCF7 cells at 5 uM after 2 to 24 hrs by crystal-violet staining-based microscopic analysis; format: functional, cell-based
[14] = system: HeLa; assay: Antiadhesive activity against human HeLa cells at 5 uM after 2 to 24 hrs by crystal-violet staining-based microscopic analysis; format: functional, cell-based
[15] = system: K562; assay: Cell cycle arrest in human K562 cells as assessed as accumulation at S phase at 0.5 uM after 48 hrs by propidium iodide staining-based flow cytometric analysis relative to control; format: functional
[16] = system: HepG2; assay: Antiproliferative activity against human HepG2 cells after 72 hrs by MTT assay; format: functional, cell-based
[17] = system: SW-620; assay: Cell cycle arrest in human SW620 cells as assessed as accumulation at sub-G1 phase at 1 uM after 48 hrs by propidium iodide staining-based flow cytometric analysis relative to control; format: functional
[18] = system: WI-38; assay: Cell cycle arrest in human WI38 cells as assessed as accumulation at G2/M phase at 0.1 uM after 48 hrs by propidium iodide staining-based flow cytometric analysis relative to control; settings: wi-38, 48 h
[19] = system: WI-38; assay: Cell cycle arrest in human WI38 cells as assessed as accumulation at G1 phase at 0.1 uM after 48 hrs by propidium iodide staining-based flow cytometric analysis relative to control; settings: wi-38, 48 h
[20] = system: SW-620; assay: Cell cycle arrest in human SW620 cells as assessed as accumulation at G2/M phase at 0.1 uM after 48 hrs by propidium iodide staining-based flow cytometric analysis relative to control; format: functional
[21] = system: K562; assay: Cell cycle arrest in human K562 cells as assessed as accumulation at sub-G1 phase at 0.5 uM after 48 hrs by propidium iodide staining-based flow cytometric analysis relative to control; format: functional
[22] = system: K562; assay: Cell cycle arrest in human K562 cells as assessed as accumulation at G2/M phase at 0.5 uM after 24 hrs by propidium iodide staining-based flow cytometric analysis relative to control; format: functional
[23] = system: MIA PaCa-2; assay: (§1) Antiproliferative activity against human MIAPaCa2 cells after 72 hrs by MTT assay; format: functional, cell-based
[24] = as §1; format: functional, cell-based; settings: MIA PaCa-2, 72 h
[25] = system: MCF7; assay: Cell cycle arrest in human MCF7 cells as assessed as accumulation at G2/M phase at 0.1 uM after 48 hrs by propidium iodide staining-based flow cytometric analysis relative to control; format: functional
[26] = system: K562; assay: Cell cycle arrest in human K562 cells as assessed as accumulation at S phase at 0.5 uM after 24 hrs by propidium iodide staining-based flow cytometric analysis relative to control; format: functional
[27] = system: MCF7; assay: Cell cycle arrest in human MCF7 cells as assessed as accumulation at G2/M phase at 1 uM after 48 hrs by propidium iodide staining-based flow cytometric analysis relative to control; format: functional
[28] = system: WI-38; assay: Cell cycle arrest in human WI38 cells as assessed as accumulation at S phase at 0.1 uM after 24 hrs by propidium iodide staining-based flow cytometric analysis relative to control; settings: wi-38, 24 h
[29] = system: MCF7; assay: Cell cycle arrest in human MCF7 cells as assessed as accumulation at S phase at 0.1 uM after 48 hrs by propidium iodide staining-based flow cytometric analysis relative to control; format: functional
[30] = system: WI-38; assay: Antiproliferative activity against human WI38 cells after 72 hrs by MTT assay; format: cell-based
[31] = system: MCF7; assay: Cell cycle arrest in human MCF7 cells as assessed as accumulation at G1 phase at 1 uM after 48 hrs by propidium iodide staining-based flow cytometric analysis relative to control; format: functional
[32] = system: MCF7; assay: Cell cycle arrest in human MCF7 cells as assessed as accumulation at sub-G1 phase at 1 uM after 24 hrs by propidium iodide staining-based flow cytometric analysis relative to control; format: functional
[33] = system: K562; assay: Cell cycle arrest in human K562 cells as assessed as accumulation at sub-G1 phase at 0.5 uM after 24 hrs by propidium iodide staining-based flow cytometric analysis relative to control; format: functional
[34] = system: SW-620; assay: Cell cycle arrest in human SW620 cells as assessed as accumulation at S phase at 0.1 uM after 48 hrs by propidium iodide staining-based flow cytometric analysis relative to control; format: functional
[35] = system: K562; assay: Cell cycle arrest in human K562 cells as assessed as accumulation at G2/M phase at 1 uM after 24 hrs by propidium iodide staining-based flow cytometric analysis relative to control; format: functional
[36] = system: BJ; assay: Antiadhesive activity against human BJ cells at 5 uM after 2 to 24 hrs by crystal-violet staining-based microscopic analysis; format: ADME, cell-based
[37] = system: K562; assay: Cell cycle arrest in human K562 cells as assessed as accumulation at G1 phase at 1 uM after 48 hrs by propidium iodide staining-based flow cytometric analysis relative to control; format: functional
[38] = system: SW-620; assay: Cell cycle arrest in human SW620 cells as assessed as accumulation at sub-G1 phase at 1 uM after 24 hrs by propidium iodide staining-based flow cytometric analysis relative to control; format: functional

IC50 ([4]; MCF7, 72 h): 400 nM
Activity [7]: 6.9%
Activity [11]: 61.7%
Activity [18]: 5.7%
Activity [19]: 48.5%
Activity [28]: 8.9%
SMILES: COCn1c(CC(COCc2ccccc2)COCc2ccccc2)c(C)c(=O)n(COC)c1=O
Activity [1]: 6.8%
Activity [2]: 16.1%
Activity [3]: 3%
Activity [4]: Dose-dependent effect
Activity [5]: 51.5%
Activity [6]: 19.6%
Activity [8]: 3.9%
Activity [9]: 28.6%
Activity [10]: 78.9%
Activity [12]: 4.3%
Activity [13]: Active
Activity [14]: Active
Activity [15]: 18.2%
Activity [16]: Dose-dependent effect
Activity [17]: 6.7%
Activity [20]: 15.5%
Activity [21]: 15%
Activity [22]: 4.8%
Activity [23]: Dose-dependent effect
IC50 [24]: 500 nM
Activity [25]: 9.5%
Activity [26]: 5.6%
Activity [27]: 3.8%
Activity [29]: 11.9%
IC50 ([30]; Homo sapiens, WI-38, 72 h): 300 nM
Activity ([30]; human, wi-38, 72 h): Dose-dependent effect
Activity [31]: 11.5%
Activity [32]: 67.1%
Activity [33]: 3.3%
Activity [34]: 25.6%
Activity [35]: 18.4%
Activity [36]: Toxic
Activity [37]: 51.8%
Activity [38]: 5.2%
